Experimental data taken from patent US12139471B2, “NLRP3 inflammasome inhibitors” (Novartis AG, priority 2019, dated 2024).
Counter-ions that a name gives are not always drawn.

What follows are compounds tested against T1, NLRP3 inflammasome (Homo sapiens, UniProt Q96P20) (assay: IL-1β secretion assay (nigericin-activated, PMA-differentiated THP-1 cells, HTRF)). Details: PMA-differentiated THP-1 cells; compound 1 hour, then 15 μM nigericin, 3 hours; IL-1β by HTRF; read-out: IL-1β IC50.
T1 construct: host or cells: THP-1 cells, PMA-differentiated
T1 sequence (Q96P20 whole entry): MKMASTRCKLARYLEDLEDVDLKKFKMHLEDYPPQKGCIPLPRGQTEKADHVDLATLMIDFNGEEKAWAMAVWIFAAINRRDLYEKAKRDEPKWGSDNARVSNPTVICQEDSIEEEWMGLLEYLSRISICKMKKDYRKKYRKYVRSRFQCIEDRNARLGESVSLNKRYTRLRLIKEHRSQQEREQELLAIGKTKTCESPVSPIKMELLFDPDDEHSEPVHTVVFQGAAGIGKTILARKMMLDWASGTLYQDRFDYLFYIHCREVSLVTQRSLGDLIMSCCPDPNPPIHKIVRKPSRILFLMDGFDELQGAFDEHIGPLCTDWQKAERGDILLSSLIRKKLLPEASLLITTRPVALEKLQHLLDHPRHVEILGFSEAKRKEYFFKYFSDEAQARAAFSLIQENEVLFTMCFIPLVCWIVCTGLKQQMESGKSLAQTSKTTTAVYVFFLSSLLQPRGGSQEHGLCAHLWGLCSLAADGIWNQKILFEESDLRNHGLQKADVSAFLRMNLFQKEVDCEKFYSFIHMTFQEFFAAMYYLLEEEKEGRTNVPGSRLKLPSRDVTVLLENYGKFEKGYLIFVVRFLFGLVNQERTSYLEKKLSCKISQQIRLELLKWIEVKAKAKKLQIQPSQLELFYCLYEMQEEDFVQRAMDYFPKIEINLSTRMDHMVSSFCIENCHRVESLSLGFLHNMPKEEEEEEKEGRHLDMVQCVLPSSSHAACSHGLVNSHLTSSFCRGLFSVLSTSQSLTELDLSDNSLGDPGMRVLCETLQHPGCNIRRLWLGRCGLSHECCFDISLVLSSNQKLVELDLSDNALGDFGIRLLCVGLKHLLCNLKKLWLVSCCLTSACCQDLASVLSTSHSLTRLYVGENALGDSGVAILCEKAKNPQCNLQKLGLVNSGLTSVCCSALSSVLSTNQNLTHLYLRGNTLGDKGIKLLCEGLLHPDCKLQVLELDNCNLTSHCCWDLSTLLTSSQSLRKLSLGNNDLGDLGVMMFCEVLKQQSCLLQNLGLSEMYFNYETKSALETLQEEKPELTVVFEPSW
Format: cell-based
Protocol: 10 μL supernatant was removed, and IL-1β levels were monitored using an HTRF assay (CisBio, #62IL1PEC) according to manufacturers' instructions. Viability and pyroptosis was monitored with the addition of PrestoBlue cell viability reagent (Life Technologies, #A13261) directly to the cell culture plate.
IC50 values were calculated from the plot of percentage of inhibition versus the inhibitor concentration by a logistics fit according to: y=A2+(A1−A2)/(1+(x/IC50)^p) where y is the %-inhibition at the inhibitor concentration, x. A1 is the lowest inhibition value, i.e. 0%, and A2 the maximum inhibition value, i.e. 100%. The exponent, p, is the Hill coefficient. The curve fitting was conducted with an internally developed software suite.
NLRP3-dependent IL-1β secretion was stimulated in PMA-differentiated THP-1 cells by the addition of nigericin, and cytokines were measured in the […] after 3 hours. As discussed above, activation of the NLRP3 inflammasome requires both an NF-kB-dependent priming step and the addition of a NLRP3 activator.
With `Cc1ncccc1CNc1ccc(-c2c(O)cc(C(F)(F)F)cc2Cl)nn1` [Ex 34, 3-Chloro-2-(6-(((2-methylpyridin-3-yl)methyl)amino)pyridazin-3-yl)-5-(trifluoromethyl)phenol] the IC50 was 496 nM.
`Cc1ncccc1CNc1ccc(-c2c(O)cc(Cl)cc2C(F)(F)F)nn1` [Ex 35, 5-Chloro-2-(6-(((2-methylpyridin-3-yl)methyl)amino)pyridazin-3-yl)-3-(trifluoromethyl)phenol] was tested, and the IC50 was 243 nM.
In the case of `OCCNc1ccc(-c2c(O)cc(C(F)(F)F)cc2Cl)nn1` [Ex 37, 3-Chloro-2-(6-((2-hydroxyethyl)amino)pyridazin-3-yl)-5-(trifluoromethyl)phenol], the IC50 is reported as 381 nM.
In the case of `Cc1cc(C(F)(F)F)cc(O)c1-c1ccc(Nc2cncnc2)nn1` [Ex 43, 3-Methyl-2-(6-(pyrimidin-5-ylamino)pyridazin-3-yl)-5-(trifluoromethyl)phenol], the IC50 is reported as 281 nM.
In the case of `Cc1cc(C(F)(F)F)cc(O)c1-c1ccc(NC2(C)CCCN(C)C2)nn1` (stereo not drawn) [Ex 52, 2-(6-((1,3-Dimethylpiperidin-3-yl)amino)pyridazin-3-yl)-3-methyl-5-(trifluoromethyl)phenol TFA-salt], the IC50 is reported as 186 nM.
For `Cc1cc(-c2c(C)cc(C(F)(F)F)cc2O)nnc1N[C@H]1C[C@@](C)(O)C1` [Ex 54, 2-(6-(((cis)-3-Hydroxy-3-methylcyclobutyl)amino)-5-methylpyridazin-3-yl)-3-methyl-5-(trifluoromethyl)phenol], the IC50 was 11.8 nM.
`Cc1cc(N[C@H]2C[C@@](C)(O)C2)nnc1-c1ccc(C(F)(F)F)cc1O` [Ex 55, 2-(6-(((cis)-3-Hydroxy-3-methylcyclobutyl)amino)-4-methylpyridazin-3-yl)-5-(trifluoromethyl)phenol] gave an IC50 of 45.8 nM.
`Cc1cc(C(F)(F)F)cc(O)c1-c1cc(C(F)(F)F)c(N[C@H]2C[C@@](C)(O)C2)nn1` [Ex 56, 2-(6-(((cis)-3-Hydroxy-3-methylcyclobutyl)amino)-5-(trifluoromethyl)pyridazin-3-yl)-3-methyl-5-(trifluoromethyl)phenol] was tested, and the IC50 was 8.3 nM.
For `Cc1cc(C(F)(F)F)cc(O)c1-c1ccc(N[C@H]2CCC[C@H](O)C2)nn1` [Ex 57, 2-(6-(((1S,3S)-3-Hydroxycyclohexyl)amino)pyridazin-3-yl)-3-methyl-5-(trifluoromethyl)phenol], the IC50 was 224 nM.
`Cc1cc(C(F)(F)F)cc(O)c1-c1ccc(N[C@@H]2CCC[C@@H](O)C2)nn1` [Ex 58, 2-(6-(((1R,3R)-3-Hydroxycyclohexyl)amino)pyridazin-3-yl)-3-methyl-5-(trifluoromethyl)phenol] showed an IC50 of 58.4 nM.
In the case of `Cc1cc(C(F)(F)F)cc(O)c1-c1ccc(N[C@@H]2CCCN(C)C2=O)nn1` [Ex 59, (R)-3-((6-(2-Hydroxy-6-methyl-4-(trifluoromethyl)phenyl)pyridazin-3-yl)amino)-1-methylpiperidin-2-one], the IC50 is reported as 35.9 nM.
For `Cc1cc(C(F)(F)F)cc(O)c1-c1ccc(NC[C@@H](F)C(C)(C)O)nn1` [Ex 60, (R)-2-(6-((2-Fluoro-3-hydroxy-3-methylbutyl)amino)pyridazin-3-yl)-3-methyl-5-(trifluoromethyl)phenol], the IC50 was 139 nM.
`Cc1cc(C(F)(F)F)cc(O)c1-c1ccc(N[C@@H]2CCC(=O)NC2)nn1` [Ex 61, (R)-5-((6-(2-Hydroxy-6-methyl-4-(trifluoromethyl)phenyl)pyridazin-3-yl)amino)piperidin-2-one] gave an IC50 of 65.8 nM.
In the case of `C[C@]1(O)C[C@@H](Nc2cc(C(F)(F)F)c(-c3ccc(C(F)(F)F)cc3O)nn2)C1` [Ex 66, 2-(6-(((cis)-3-Hydroxy-3-methylcyclobutyl)amino)-4-(trifluoromethyl)pyridazin-3-yl)-5-(trifluoromethyl)phenol], the IC50 is reported as 187 nM.
Compound `Cc1cc(C(F)(F)F)cc(O)c1-c1ccc(N[C@H]2C[C@](O)(C(F)(F)F)C2)nn1` [Ex 67, 2-(6-(((cis)-3-Hydroxy-3-(trifluoromethyl)cyclobutyl)amino)pyridazin-3-yl)-3-methyl-5-(trifluoromethyl)phenol] has an IC50 of 40.1 nM.
In the case of `Cc1cc(N[C@H]2C[C@@](C)(O)C2)nnc1-c1ccc(Cl)cc1O` [Ex 68, 5-Chloro-2-(6-(((cis)-3-hydroxy-3-methylcyclobutyl)amino)-4-methylpyridazin-3-yl)phenol], the IC50 is reported as 89.3 nM.
Compound `C[C@]1(O)C[C@@H](Nc2cc(C(F)(F)F)c(-c3ccc(Cl)cc3O)nn2)C1` [Ex 69, 5-Chloro-2-(6-(((cis)-3-hydroxy-3-methylcyclobutyl)amino)-4-(trifluoromethyl)pyridazin-3-yl)phenol] has an IC50 of 431 nM.
With `Cc1cc(-c2c(C)cc(C(F)(F)F)cc2O)nnc1NCC(C)(C)O` [Ex 72, 2-(6-((2-Hydroxy-2-methylpropyl)amino)-5-methylpyridazin-3-yl)-3-methyl-5-(trifluoromethyl)phenol] the IC50 was 44.9 nM.
`Cc1cc(NCC(C)(C)O)nnc1-c1c(C)cc(C(F)(F)F)cc1O` [Ex 73, 2-(6-((2-Hydroxy-2-methylpropyl)amino)-4-methylpyridazin-3-yl)-3-methyl-5-(trifluoromethyl)phenol] was tested, and the IC50 was 154 nM.
`Cc1cc(C(F)(F)F)cc(O)c1-c1ccc(NC[C@@H]2C[C@H](F)CN2)nn1` [Ex 75, 2-(6-((((2S,4S)-4-Fluoropyrrolidin-2-yl)methyl)amino)pyridazin-3-yl)-3-methyl-5-(trifluoromethyl)phenol] was tested, and the IC50 was 18.3 nM.
With `Cc1cc(C(F)(F)F)cc(O)c1-c1ccc(NC[C@@H]2C[C@@H](F)CN2)nn1` [Ex 76, 2-(6-((((2S,4R)-4-Fluoropyrrolidin-2-yl)methyl)amino)pyridazin-3-yl)-3-methyl-5-(trifluoromethyl)phenol] the IC50 was 89.7 nM.
Work on `Cc1cc(C(F)(F)F)cc(O)c1-c1ccc(NC[C@](C)(O)C(F)(F)F)nn1` [Ex 78, (S)-3-Methyl-2-(6-((3,3,3-trifluoro-2-hydroxy-2-methylpropyl)amino)pyridazin-3-yl)-5-(trifluoromethyl)phenol HCl-salt] yielded an IC50 of 198 nM.
In the case of `Cc1cc(C(F)(F)F)cc(O)c1-c1ccc(NC(C)(C)CO)nn1` [Ex 79, 2-(6-((1-Hydroxy-2-methylpropan-2-yl)amino)pyridazin-3-yl)-3-methyl-5-(trifluoromethyl)phenol], the IC50 is reported as 370 nM.
For `Cc1cc(N[C@H]2C[C@@](C)(O)C2)nnc1-c1ccc(OC(F)(F)F)cc1O` [Ex 81, 2-(6-(((cis)-3-Hydroxy-3-methylcyclobutyl)amino)-4-methylpyridazin-3-yl)-5-(trifluoromethoxy)phenol], the IC50 was 130 nM.
Compound `Cc1cc(C(F)(F)F)cc(O)c1-c1ccc(NCC2(O)CCCC2)nn1` [Ex 98, 2-(6-(((1-Hydroxycyclopentyl)methyl)amino)pyridazin-3-yl)-3-methyl-5-(trifluoromethyl)phenol] has an IC50 of 115 nM.
`Cc1cc(-c2c(C)cc(C(F)(F)F)cc2O)nnc1NC1CCC(=O)N(C)C1` (stereo not drawn) [Ex 99, 5-((6-(2-Hydroxy-6-methyl-4-(trifluoromethyl)phenyl)-4-methylpyridazin-3-yl)amino)-1-methylpiperidin-2-one] showed an IC50 of 75 nM.
For `Cc1cc(-c2c(C)cc(C(F)(F)F)cc2O)nnc1N[C@@H]1CCCN(C)C1=O` [Ex 102, (R)-3-((6-(2-Hydroxy-6-methyl-4-(trifluoromethyl)phenyl)-4-methylpyridazin-3-yl)amino)-1-methylpiperidin-2-one], the IC50 was 49 nM.
`Cc1cc(C)c(-c2ccc(NCCc3ccc(S(N)(=O)=O)cc3)nn2)c(O)c1` [Ex 103, 4-(2-((6-(2-Hydroxy-4,6-dimethylphenyl)pyridazin-3-yl)amino)ethyl)benzenesulfonamide] gave an IC50 of 136 nM.
With “(3R)-3-((6-(2-Hydroxy-6-methyl-4-(trifluoromethyl)phenyl)-4-methylpyridazin-3-ylamino)-1-methylpiperidine 1-oxide TFA-salt [Ex 104]” the IC50 was 59 nM.

These compounds were tested on NF-kB-dependent TNF-α secretion (assay: TNF-α secretion assay (counter screen, THP-1 cells, HTRF)). Details: undifferentiated THP-1 cells, Pam3CSK4-stimulated, 3 hours, TNF-α by HTRF.
Format: cell-based
Protocol: Monocytic THP-1 cells were maintained according to providers' instructions in RPMI media as described above. […] Experimental compounds were prepared and added as described above. TNF-α secretion was triggered by the addition of either 1 μg/mL LPS (Sigma, #L4391) or 100 ng/mL Pam3CSK4 (Invivogen, #tlri-pms) depending on the experiment, and cells were incubated for 3 hours. 10 μL supernatant was removed, and TNF-α levels were monitored using an HTRF assay (CisBio, #62TNFPEC) according to manufacturers' instructions. Viability was monitored as described above.
“(3R)-3-((6-(2-Hydroxy-6-methyl-4-(trifluoromethyl)phenyl)-4-methylpyridazin-3-ylamino)-1-methylpiperidine 1-oxide TFA-salt [Ex 104]” gave an IC50 of over 100000 nM.
